From patent publication US20220396565A1 (Hoffmann-La Roche Inc., priority 2020, published 2022) come the findings set out here.

Where a name gives a salt, the structure may show the parent alone.

The subject of this test is Acinetobacter baumannii ATCC17961. Put plainly: Antimicrobial susceptibility testing: 90% growth inhibitory concentration (IC90) determination, Iso-Sensitest broth. The test is classed as cell-based. The following applies: Acinetobacter baumannii, ATCC17961, 90% growth inhibitory concentration, Acinetobacter baumannii ATCC17961, Iso-Sensitest broth; read-out: ATCC 17961 IC90. An outline of the steps:
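Growth at OD600 was monitored every 20 min for 16 h at 35±2 °C, with bacteria inoculated at ~5×10^(5) CFU/ml into Iso-Sensitest medium. Compounds were tested as 10-point twofold dilutions (e.g. 10–0.02 μM final). The 90% inhibitory concentration comes from the log-phase growth.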
Regarding `Cn1c(-c2ccc(OCF)c(Cl)c2F)cnc1C(=O)Nc1ccc(C(=O)N2CCN(C(=O)[C@@H]3C[C@@H](O)CN3)CC2)c(Cl)c1` [Example 247, 5-[3-chloro-2-fluoro-4-(fluoromethoxy)phenyl]-N-[3-chloro-4-[4-[(2S,4R)-4-hydroxypyrrolidine-2-carbonyl]piperazine-1-carbonyl]phenyl]-1-methyl-imidazole-2-carboxamide], the IC90 amounted to 30 nM. To `Cc1cc(NC(=O)c2ncc(-c3ccc(OCF)c(Cl)c3F)n2C)ccc1C(=O)N1CCN(C(=O)[C@@H]2C[C@@H](O)CN2)CC1` [Example 248, 5-[3-chloro-2-fluoro-4-(fluoromethoxy)phenyl]-N-[4-[4-[(2S,4R)-4-hydroxypyrrolidine-2-carbonyl]piperazine-1-carbonyl]-3-methyl-phenyl]-1-methyl-imidazole-2-carboxamide] belongs 50 nM; to `Cn1c(-c2ccc(OC(F)F)c(F)c2F)cnc1C(=O)Nc1ccc(C(=O)N2CCN(C(=O)C3CCNCC3)CC2)c(Cl)c1` [Example 249, N-[3-chloro-4-[4-(piperidine-4-carbonyl)piperazine-1-carbonyl]phenyl]-5-[4-(difluoromethoxy)-2,3-difluoro-phenyl]-1-methyl-imidazole-2-carboxamide formate], 30 nM. For `COc1ccc(-c2cnc(C(=O)Nc3ccc(C(=O)N4CCC(C(=O)NC5CNC5)CC4)c(Cl)c3)n2C)c(F)c1F` [Example 250, N-(azetidin-3-yl)-1-[2-chloro-4-[[5-(2,3-difluoro-4-methoxy-phenyl)-1-methyl-imidazole-2-carbonyl]amino]benzoyl] piperidine-4-carboxamide trifluoroacetate], the IC90 came to 80 nM.

In the case of `Cn1c(-c2ccc(OCC#N)c(F)c2Cl)cnc1C(=O)Nc1ccc(C(=O)N2CCN(C(=O)C3(O)CCNCC3)CC2)c(Cl)c1` [Example 251, 5-[2-chloro-4-(cyanomethoxy)-3-fluoro-phenyl]-N-[3-chloro-4-[4-(4-hydroxypiperidine-4-carbonyl)piperazine-1-carbonyl]phenyl]-1-methyl-imidazole-2-carboxamide formate], the IC90 amounted to 50 nM. For `Cn1c(-c2ccc(OCC#N)c(F)c2Cl)cnc1C(=O)Nc1ccc(C(=O)N2CCN(C(=O)C3CCNCC3)CC2)c(Cl)c1` [Example 252, 5-[2-chloro-4-(cyanomethoxy)-3-fluoro-phenyl]-N-[3-chloro-4-[4-(piperidine-4-carbonyl)piperazine-1-carbonyl]phenyl]-1-methyl-imidazole-2-carboxamide formate], the IC90 came to 60 nM. As to `Cn1c(-c2ccc(OCC#N)c(F)c2Cl)cnc1C(=O)Nc1ccc(C(=O)N2CCN(C(=O)[C@H]3CCNC3)CC2)c(Cl)c1` [Example 253, 5-[2-chloro-4-(cyanomethoxy)-3-fluoro-phenyl]-N-[3-chloro-4-[4-[(3S)-pyrrolidine-3-carbonyl]piperazine-1-carbonyl]phenyl]-1-methyl-imidazole-2-carboxamide formate], the 90% effect concentration (IC90) worked out at 50 nM. `Cn1c(-c2ccc(OCC#N)c(F)c2Cl)cnc1C(=O)Nc1ccc(C(=O)N2CCN(C(=O)[C@@H]3CCNC3)CC2)c(Cl)c1` [Example 254, 5-[2-chloro-4-(cyanomethoxy)-3-fluoro-phenyl]-N-[3-chloro-4-[4-[(3R)-pyrrolidine-3-carbonyl]piperazine-1-carbonyl]phenyl]-1-methyl-imidazole-2-carboxamide formate]: the IC90 was 40 nM.

For the molecule `COCCOc1ccc(-c2cnc(C(=O)Nc3ccc(C(=O)N4CCN(C(=O)C5CCNCC5)CC4)c(Cl)c3)n2C)c(F)c1F` [Example 255, N-[3-chloro-4-[4-(piperidine-4-carbonyl)piperazine-1-carbonyl]phenyl]-5-[2,3-difluoro-4-(2-methoxyethoxy)phenyl]-1-methyl-imidazole-2-carboxamide formate], the IC90 was 590 nM. On to `Cn1c(-c2ccc(CC#N)cc2F)cnc1C(=O)Nc1ccc(C(=O)N2CCN(C(=O)C3CCNCC3)CC2)c(Cl)c1` [Example 256, N-[3-chloro-4-[4-(piperidine-4-carbonyl)piperazine-1-carbonyl]phenyl]-5-[4-(cyanomethyl)-2-fluoro-phenyl]-1-methyl-imidazole-2-carboxamide formate], for which the IC90 was determined as 8700 nM. Take `COc1ccc(-c2cnc(C(=O)Nc3ccc(C(=O)N4CCN(C(=O)C5CCNCC5)CC4)c(Cl)c3)n2C)c(F)c1OC` [Example 257, N-[3-chloro-4-[4-(piperidine-4-carbonyl)piperazine-1-carbonyl]phenyl]-5-(2-fluoro-3,4-dimethoxy-phenyl)-1-methyl-imidazole-2-carboxamide formate]: the IC90 was found to be 230 nM. To `COc1cc(-c2cnc(C(=O)Nc3ccc(C(=O)N4CCN(C(=O)C5CCNCC5)CC4)c(Cl)c3)n2C)cc(F)c1F` [Example 258, N-[3-chloro-4-[4-(piperidine-4-carbonyl)piperazine-1-carbonyl]phenyl]-5-(3,4-difluoro-5-methoxy-phenyl)-1-methyl-imidazole-2-carboxamide formate] belongs 1120 nM; to `Cc1c(-c2cnc(C(=O)Nc3ccc(C(=O)N4CCN(C(=O)C[C@@H]5CCNC5)CC4)c(Cl)c3)n2C)ccc(OCF)c1F` [Example 259, N-[3-chloro-4-[4-[2-[(3S)-pyrrolidin-3-yl]acetyl]piperazine-1-carbonyl]phenyl]-5-[3-fluoro-4-(fluoromethoxy)-2-methyl-phenyl]-1-methyl-imidazole-2-carboxamide formate], 50 nM. To `COc1ccc(-c2cnc(C(=O)Nc3ccc(C(=O)N4CCN(C(=O)C[C@@H]5CCNC5)CC4)c(Cl)c3)n2C)c(C#N)c1F` [Example 260, N-[3-chloro-4-[4-[2-[(3S)-pyrrolidin-3-yl]acetyl]piperazine-1-carbonyl]phenyl]-5-(2-cyano-3-fluoro-4-methoxy-phenyl)-1-methyl-imidazole-2-carboxamide formate] belongs 250 nM; to `COc1ccc(-c2cnc(C(=O)Nc3ccc(C(=O)N4CCN(C(=O)C[C@@H]5CCNC5)CC4)c(Cl)c3)n2C)c(C(F)F)c1F` [Example 261, N-[3-chloro-4-[4-[2-[(3S)-pyrrolidin-3-yl]acetyl]piperazine-1-carbonyl]phenyl]-5-[2-(difluoromethyl)-3-fluoro-4-methoxy-phenyl]-1-methyl-imidazole-2-carboxamide formate], 80 nM. To `CN(C)c1ccc(-c2cnc(C(=O)Nc3ccc(C(=O)N4CCN(C(=O)C5CCNCC5)CC4)c(Cl)c3)n2C)c(F)c1F` [Example 262, N-[3-chloro-4-[4-(piperidine-4-carbonyl)piperazine-1-carbonyl]phenyl]-5-[4-(dimethylamino)-2,3-difluoro-phenyl]-1-methyl-imidazole-2-carboxamide formate] belongs 70 nM. `CN(C)C(=O)c1ccc(-c2cnc(C(=O)Nc3ccc(C(=O)N4CCN(C(=O)C5CCNCC5)CC4)c(Cl)c3)n2C)c(F)c1F` [Example 263, N-[3-chloro-4-[4-(piperidine-4-carbonyl)piperazine-1-carbonyl]phenyl]-5-[4-(dimethylcarbamoyl)-2,3-difluoro-phenyl]-1-methyl-imidazole-2-carboxamide formate]: the IC90 worked out at 6060 nM. Regarding `COc1ccc(-c2cnc(C(=O)Nc3ccc(C(=O)N4CCN(C(=O)C5CCNCC5)CC4)c(Cl)c3)n2C)c(F)c1F` [Example 265, N-[3-chloro-4-[4-(piperidine-4-carbonyl)piperazine-1-carbonyl]phenyl]-5-(2,3-difluoro-4-methoxy-phenyl)-1-methyl-imidazole-2-carboxamide hydrochloride], the IC90 was 70 nM. To `Cn1c(-c2ccc(OCC#N)c(Cl)c2F)cnc1C(=O)Nc1ccc(C(=O)N2CCN(C(=O)C3CCNCC3)CC2)c(Cl)c1` [Example 268, 5-[3-chloro-4-(cyanomethoxy)-2-fluoro-phenyl]-N-[3-chloro-4-[4-(piperidine-4-carbonyl)piperazine-1-carbonyl]phenyl]-1-methyl-imidazole-2-carboxamide] belongs 70 nM. To `CN(C)CCN1CCN(C(=O)c2ccc(NC(=O)c3ncc(-c4ccc(Oc5ccccn5)c(F)c4F)n3C)cc2Cl)CC1` [Example 271, N-[3-chloro-4-[4-[2-(dimethylamino)ethyl]piperazine-1-carbonyl]phenyl]-5-[2,3-difluoro-4-(2-pyridyloxy)phenyl]-1-methyl-imidazole-2-carboxamide trifluoroacetate] belongs 640 nM. In the case of `CN(C)CCN1CCN(C(=O)c2ccc(NC(=O)c3ncc(-c4ccc(Oc5ccncc5)c(F)c4F)n3C)cc2Cl)CC1` [Example 272, N-[3-chloro-4-[4-[2-(dimethylamino)ethyl]piperazine-1-carbonyl]phenyl]-5-[2,3-difluoro-4-(4-pyridyloxy)phenyl]-1-methyl-imidazole-2-carboxamide trifluoroacetate], the IC90 is 880 nM. As to `CN(C)CCN1CCN(C(=O)c2ccc(NC(=O)c3ncc(-c4ccc(Oc5ncccn5)c(F)c4F)n3C)cc2Cl)CC1` [Example 273, N-[3-chloro-4-[4-[2-(dimethylamino)ethyl]piperazine-1-carbonyl]phenyl]-5-(2,3-difluoro-4-pyrimidin-2-yloxy-phenyl)-1-methyl-imidazole-2-carboxamide trifluoroacetate], the IC90 worked out at 1300 nM. Take `COc1ccc(-c2cnc(C(=O)Nc3ccc(C(=O)N4CCN(C(=O)CCOCCC(N)=O)CC4)c(Cl)c3)n2C)c(F)c1F` [Example 279, N-(4-(4-(3-(3-Amino-3-oxopropoxy)propanoyl)piperazine-1-carbonyl)-3-chlorophenyl)-5-(2,3-difluoro-4-methoxyphenyl)-1-methyl-1H-imidazole-2-carboxamide]: the IC90 stood at 150 nM.

Regarding `COc1ccc(-c2cnc(C(=O)Nc3ccc(C(=O)N4CCN(C(=O)C5CC(C(N)=O)C5)CC4)c(Cl)c3)n2C)c(F)c1F` (stereo not drawn) [Example 280, N-(4-(4-(3-carbamoylcyclobutane-1-carbonyl)piperazine-1-carbonyl)-3-chlorophenyl)-5-(2,3-difluoro-4-methoxyphenyl)-1-methyl-1H-imidazole-2-carboxamide], the IC90 was 100 nM.

The IC90 is the concentration needed for an effect of 90%.
